The results in this text go back to ChEMBL document CHEMBL1145948 (J Med Chem, 2003).

Assay [1] has as its target T1, Histamine H1 receptor (Homo sapiens, UniProt P35367).
Assay [2] has as its target T1, Histamine H1 receptor. This is another data set of the same source.
Assay [3] has as its target T1, Histamine H1 receptor. The assay is described as follows: Intrinsic activity was determined; Tested up to 100 uM: no effects up to 10 uM.
For assay [4], the target named is T1, Histamine H1 receptor. Description: Intrinsic activity; Tested up to 10 uM: no effects up to 1 uM.
In assay [5] the target is T1, Histamine H1 receptor. Description: Intrinsic activity; Tested up to 100 uM: no effects up to 10 uM.
For assay [6], the target named is T1, Histamine H1 receptor. The assay is described as follows: Intrinsic activity; Tested up to 10 uM: no effects up to 1 uM.

In general, EC50 refers to the concentration that produces a half-maximal response. A high value points to a less potent agent. The IC50 is the point on the concentration scale where inhibition reaches its midpoint.

Active and inactive are the calls of the source. No cut-off for these calls is given here.

T1 sequence (P35367 whole entry): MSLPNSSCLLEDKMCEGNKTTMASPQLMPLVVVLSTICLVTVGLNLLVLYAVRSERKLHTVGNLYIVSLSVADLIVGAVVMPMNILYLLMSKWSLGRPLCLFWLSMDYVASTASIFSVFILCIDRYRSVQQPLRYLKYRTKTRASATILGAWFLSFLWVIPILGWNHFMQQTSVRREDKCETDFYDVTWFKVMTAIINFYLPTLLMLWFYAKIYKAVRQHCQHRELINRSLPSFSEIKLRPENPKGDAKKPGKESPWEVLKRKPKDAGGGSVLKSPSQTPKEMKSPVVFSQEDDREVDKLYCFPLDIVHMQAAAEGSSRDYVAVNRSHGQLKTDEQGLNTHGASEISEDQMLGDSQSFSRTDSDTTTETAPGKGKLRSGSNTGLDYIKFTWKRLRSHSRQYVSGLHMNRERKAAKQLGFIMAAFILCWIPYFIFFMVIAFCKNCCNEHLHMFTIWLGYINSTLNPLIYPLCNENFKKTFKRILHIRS

`NCCc1cnc(-c2cccc(C(F)(F)F)c2)[nH]1` had an EC50 at Histamine H1 receptor [1] of 1000 nM.
Consider `c1nc(CCCCCCCCCCCCN2CCCC2)c[nH]1`, for which half-maximal inhibition against Histamine H1 receptor [1] (IC50) was put at 3980 nM. The Alpha at Histamine H1 receptor [2] was -0.46.
Regarding `NCCc1c[nH]c(CCCCC(c2ccccc2)c2ccccc2)n1`, the Alpha at Histamine H1 receptor [2] is -0.09.
In turn, `NCCc1c[nH]c(-c2cccc(C(F)(F)F)c2)n1` had an Alpha at Histamine H1 receptor [2] of 0.91.
Take `NCCc1c[nH]c(-c2cccc(Cl)c2)n1`: on Histamine H1 receptor [1], the EC50 stood at 2000 nM. This compound also came in with an Alpha on Histamine H1 receptor [2] of 1.28.
On to `NCCCCCCCCCCc1ccncc1`, for which half-maximal inhibition on Histamine H1 receptor [1] (IC50) required 2510 nM. For the same compound, at Histamine H1 receptor [2], the Alpha was -1.
As for `NCCc1cscn1`, at Histamine H1 receptor [3], the Alpha entry was “inactive”.
The compound `NCCCCCCCCCCCCCc1c[nH]cn1` yielded an Alpha on Histamine H1 receptor [2] of -0.84.
Regarding `NCCc1c[nH]c(CCC(c2ccccc2)C2CCCCC2)n1` (stereo not drawn), the Alpha entry at Histamine H1 receptor [4] was “inactive”.
Turning to `NCCc1c[nH]c(CCC(c2ccccc2)c2ccc(Br)cc2)n1` (stereo not drawn), the Alpha entry on Histamine H1 receptor [4] is “inactive”.
Turning to `NCCCCCCCCCc1ccccn1`, at Histamine H1 receptor [1], the IC50 is 7940 nM. This compound yielded an Alpha at Histamine H1 receptor [2] of -0.92.
`NCCc1c[nH]c(CCCC(c2ccccc2)c2ccccc2)n1` came in with an Alpha on Histamine H1 receptor [2] of 0.02.
Consider `NCCCCCCCCCc1c[nH]cn1`, for which the IC50 against Histamine H1 receptor [1] is 2000 nM. Moreover, the Alpha on Histamine H1 receptor [2] was -0.72.
As for `NCCc1c[nH]c(CC(c2ccccc2)c2ccccc2)n1`, the Alpha result at Histamine H1 receptor [5] is “inactive”.
With `NCCc1c[nH]c(CCC(c2ccccc2)c2ccccc2)n1`, on Histamine H1 receptor [2], the Alpha is 0.69.
The compound `c1nc(CCCCCCCCN2CCCC2)c[nH]1` gave an Alpha on Histamine H1 receptor [2] of -0.99.
Compound `CN(C)CCN(Cc1ccccc1)c1ccccn1` [TRIPELENNAMINE] had an IC50 against Histamine H1 receptor [1] of 39.8 nM. Also, the Alpha on Histamine H1 receptor [2] is -0.84.
As for `NCCCCCCCCCCCCc1ccccn1`, the Alpha entry at Histamine H1 receptor [6] was “inactive”.
`NCCCCCCCCCCc1ccccn1`: the Alpha entry at Histamine H1 receptor [6] is “inactive”.
`NCCc1c[nH]c(-c2ccc(Cl)c(Cl)c2)n1` displayed a half-maximal effective concentration (EC50) on Histamine H1 receptor [1] of 50100 nM. The same compound gave an Alpha on Histamine H1 receptor [2] of 0.5.
On Histamine H1 receptor [2], `NCCCCCCCCCCCc1c[nH]cn1` returned an Alpha of -0.61.
Regarding `NCCc1cnc(CCC(c2ccccc2)c2ccccc2)[nH]1`, the IC50 against Histamine H1 receptor [1] is 794 nM.
`NCCCCCCCCCCCCCCc1c[nH]cn1` yielded an Alpha at Histamine H1 receptor [2] of -0.9.
The compound `NCCc1c[nH]cn1` yielded an Alpha on Histamine H1 receptor [2] of 1.
On Histamine H1 receptor [1], `c1nc(CCCCCCCCCCN2CCCC2)c[nH]1` showed an IC50 of 398 nM. Moreover, the Alpha on Histamine H1 receptor [2] was -0.61.
As for `NCCCCCCCCCCCCc1cccnc1`, the IC50 against Histamine H1 receptor [1] was 1260 nM. The same compound came in with an Alpha on Histamine H1 receptor [2] of -0.78.
Regarding `NCCCCCCCCCCCCCc1cnc[nH]1`, at Histamine H1 receptor [1], 1260 nM corresponded to half-maximal inhibition (IC50).
`NCCCCCCCCc1cnc[nH]1` gave an IC50 against Histamine H1 receptor [1] of 3160 nM.
In turn, `NCCc1ccccn1` had an IC50 against Histamine H1 receptor [1] of 1260 nM. The Alpha on Histamine H1 receptor [2] is 1.11.
The compound `c1ncc(CCCCCCCCN2CCCC2)[nH]1` gave an IC50 against Histamine H1 receptor [1] of 631 nM.
For the compound `NCCCCCCCCCCCCc1ccncc1`, the IC50 against Histamine H1 receptor [1] is 398 nM. On Histamine H1 receptor [2], this compound showed an Alpha of -0.67.
Regarding `Cc1ccc(C(CCc2nc(CCN)c[nH]2)c2ccccc2)cc1` (stereo not drawn), the Alpha entry at Histamine H1 receptor [4] is “inactive”.
For `NCCCCCCCCCCCCCCc1cnc[nH]1`, it took 2000 nM to reach half-maximal inhibition at Histamine H1 receptor [1] (IC50).
Consider `NCCCCCCCCCCc1c[nH]cn1`, for which, on Histamine H1 receptor [1], 501 nM corresponded to half-maximal inhibition (IC50). Also, at Histamine H1 receptor [2], the Alpha is -0.54.
For `NCCCCCCCCc1c[nH]cn1`, the Alpha on Histamine H1 receptor [2] is -0.54.
As to `NCCCCCCCCCCCc1cnc[nH]1`, the IC50 at Histamine H1 receptor [1] is 251 nM.
For the compound `NCCCCCCCCCCCCc1c[nH]cn1`, the midpoint of inhibition against Histamine H1 receptor [1], the IC50, lay at 1000 nM. Further, the Alpha on Histamine H1 receptor [2] was -0.62.
For `NCCCCCCCCCCc1cccnc1`, on Histamine H1 receptor [1], the IC50 was 2510 nM. The compound also yielded an Alpha on Histamine H1 receptor [2] of -0.76.
For `c1ccc(C(CCc2nc(CCN3CCCC3)c[nH]2)c2ccccc2)cc1`, the Alpha result at Histamine H1 receptor [5] was “inactive”.
